From patent US20230173071A1, “TREATMENT OF MYOPIA AND OTHER OCULAR CONDITIONS USING SINGLET OXYGEN GENERATED FROM DYES ACTIVATED BY NEAR-INFRARED LIGHT” (California Institute of Technology, priority 2018, published 2023)
Entries after “also recorded” stand apart in the source; their conditions may differ.

Columns and labels:
[1] = Singlet oxygen generation by DPBF decay (UV-Vis), 810 nm LED; format: physicochemical
Text: To evaluate the efficiency of singlet oxygen generation by ICG and an analog (IR-820) in vitro, the singlet oxygen generation was monitored. 1,3-diphenylisobenzofuran (DPBF), a compound that decays in the presence of singlet oxygen, and singlet oxygen sensor green (SOSG), a dye that increases fluorescence in the presence of singlet oxygen, were used as markers to indicate singlet oxygen generation by ICG and IR-820. […] For SOSG analysis, the fluorescence turn-on in H2O and D2O was compared to that observed when riboflavin—an FDA approved dye used in conjunction with UV light to treat keratoconus (corneal expansion)—was usedIn all cases, an increase in fluorescence emission at 525 nm was observed (using a 488nm excitation).

[2] = Irradiation of IR-1061 dyes with DPBF, 980 nm or 1064 nm laser; format: physicochemical; details: for DPBF signal relative to a dark control: 30 minutes of irradiation, 1 W cm^-2 980 nm laser
Method: Initial work was done using a set of IR-1061 derivatives: cited herein as IR-1061-pyridine and IR-1061-pyridinium.
Like IR-1061-pyridinium, IR-1061-acridinium was irradiated in CDCl3 in the presence of DPBF using a 1 W cm^−2 980 nm laser (FIG. 15(A)). As a comparison, a similar irradiation was carried out using a 1.8 W cm^−2 1064 nm laser (FIG. 16). The collective effect of irradiation wavelength and conditions are seen in FIGS. 15(A-C), and FIGS. 16-18.

[3] = Dye solubility observations; format: physicochemical; details: counterion exchanged from BF4- to BarF-
Method: ICG is a NIR-absorbing heptamethine dye that has the potential of generating singlet oxygen upon irradiation and has a λmax ranging from 780-810 nm depending on the context. […] BAC along with other cationic surfactants (alkyl ammonium salts, polyoxyethylene alkyl amines, amide linked alkyl amines, alkyl imidazolines, etc.) aid in the solubility of the dye in aqueous media. […] The standard formulation used in these studies consisted of 0.05 to 5.0 mg/mL ICG and 0.01% to 0.001% BAC in solution. D2O was selected as the solvent to increase the lifetime of singlet oxygen and therefore the crosslinking capability of the species. […] Fluorinated solvents (perfluorohexane, perfluorotripentylamine, etc.) are also of interest due to their ability to dissolve more oxygen and their robust inertness.

[4] = Dye stability observations
Method: Unfortunately, IR-1061-pyridinium was unatable in the presence of water. In an attempt to overcome the susceptibility of IR-1061-pyridinium to hydration, the pyridine charge-transfer partner was exchanged for acridine, which was expected to shield the dye from water addition due to its additional bulk.
To confirm that the process was singlet oxygen-mediated, irradiation of a freeze-pump-thawed sample—devoid of oxygen—was carried out. […] To evaluate the scope of the reaction, the dye was irradiated in an array of deuterated solvents.

[5] = Irradiation of IR-1061 dyes with DPBF, 980 nm or 1064 nm laser; format: physicochemical
porcine sclera = details: treated with UV light and riboflavin; previous work; cited from earlier work
[6] = Singlet oxygen sensor green (SOSG) fluorescence measurements; format: physicochemical; details: dye 0.1 mg/mL; 3 mW at 365 nm; 488 nm excitation
Method: Singlet oxygen sensor green (SOSG) is a common reagent for measuring singlet oxygen generation in aqueous systems. The marker becomes more fluorescent as singlet oxygen is generated. All time measurements were done in triplicate (100 μL aliquots from an irradiated sample). A Molecular Devices Flexstation was used to read out the fluorescence measurements with the excitation/emission at 488/525 nm.
SOSG fluorescence turn on was initially measured using riboflavin as a point of comparison for the efficacy of ICG irradiations. Measurements used a dye concentration of 0.1 mg/mL and the irradiation the parameters (3 mW at 365 nm) used in the FDA approved procedure for keratoconus (corneal expansion). The mixture was stirred during irradiation.
Stocks of the ICG formulations (both H2O and D2O) were made to be 1 mg/mL ICG and 0.01% benzalkonium chloride (BAC). These were diluted to a dye concentration of 0.1 mg/mL for the SOSG tests with no adjustments for the BAC. The sample was irradiated with 810 nm light at 200 mW and stirred throughout the irradiation.

[7] = deuterated polar aprotic solvents, such as DMSO
[8] = water (D2O with 7.5% DMSO-D6), 980 nm

## CC1(C)C(=CC=C2CCCC(C=CC3=[N+](CCCCS(=O)(=O)[O-])c4ccc5ccccc5c4C3(C)C)=C2Cl)N(CCCCS(=O)(=O)[O-])c2ccc3ccccc3c21.[Na+] [IR-820]
[1]; 810 nm LED
  DPBF decay / singlet oxygen generation in D2O compared to H2O: increase; also recorded: faster decay rate
[1]; D2O, 810 nm LED
  DPBF signal decay when irradiated: marked increase in the signal decay
[1]; H2O, 810 nm LED
  DPBF signal decay when irradiated: marked increase in the signal decay
[1]; in H2O or D2O
  singlet oxygen generation (DPBF analysis): singlet oxygen generation was observed

## C(/C=C1\CCCC(/C=C/c2cc(-c3ccccc3)[s+]c(-c3ccccc3)c2)=C1[n+]1c2ccccc2cc2ccccc21)=C1C=C(c2ccccc2)SC(c2ccccc2)=C1 [IR-1061-Acridinium BArF]
[2]; counterion exchanged from BF4- to BarF-
  photosensitization capability: marked decrease
[3]
  solubility: increase

## C(/C=C1\CCCC(/C=C/c2cc(-c3ccccc3)[s+]c(-c3ccccc3)c2)=C1[n+]1c2ccccc2cc2ccccc21)=C1C=C(c2ccccc2)SC(c2ccccc2)=C1 [IR-1061-acridinium]
[4]; prior to irradiation
  stability to strong acids and bases: dye instability and bleaching prior to irradiation
[2]; 1064 nm in CDCl3
  dye and DPBF signal during irradiation: Rapid bleaching of both the dye and DPBF signal
[2]; freeze-pump-thawed CDCl3 (devoid of oxygen), 980 nm
  DPBF signal: no change
[5]; deuterated nonpolar solvents, such as toluene
  singlet oxygen generation: no singlet oxygen generation was observed
[5]; [7]
  DPBF degradation: decreased
  photobleaching of the dye: photobleaching
[5]; [8]
  DPBF degradation rates: comparable to those seen in chloroform
  photobleaching of the dye: high levels

## C(/C=C1\CCCC(/C=C/c2cc(-c3ccccc3)[s+]c(-c3ccccc3)c2)=C1[n+]1ccccc1)=C1C=C(c2ccccc2)SC(c2ccccc2)=C1 [IR-1061-pyridinium]
[4]
  stability in the presence of water: unatable
[2]
  DPBF signal relative to a dark control: significant decrease

## ClC1=C(/C=C/c2cc(-c3ccccc3)[s+]c(-c3ccccc3)c2)CCC/C1=C\C=C1C=C(c2ccccc2)SC(c2ccccc2)=C1 [IR-1061]
[2]
  DPBF signal relative to a dark control: no significant changes

## Cc1cc2nc3c(=O)[nH]c(=O)nc-3n(C[C@H](O)[C@H](O)[C@H](O)CO)c2cc1C [riboflavin]
Porcine sclera
  change in Young's Modulus of pig sclera: minimal change
[6]
  SOSG fluorescence emission at 525 nm: increase
